Laboratory results from the kinase profiling compilation of Christmann-Franck et al. (2016).

What was measured:
Experiment in all cases: KINOMEscan competition binding
Details in all cases: compound 10.0 µM
MST1R (human) = MST1R (human) (UniProt Q04912)
CHUK (human) = CHUK (human) (UniProt O15111)
MAPK12 (human) = MAPK12 (human) (UniProt P53778)
MAPK1 (human) = MAPK1 (human) (UniProt P28482)
CDC2L2 (human) = CDC2L2 (human) (UniProt Q9UQ88)
TNK2 (human) = TNK2 (human) (UniProt Q07912)
MAPK11 (human) = MAPK11 (human) (UniProt Q15759)
Chain of MAPK11 (human) (Q15759 whole entry, looked up): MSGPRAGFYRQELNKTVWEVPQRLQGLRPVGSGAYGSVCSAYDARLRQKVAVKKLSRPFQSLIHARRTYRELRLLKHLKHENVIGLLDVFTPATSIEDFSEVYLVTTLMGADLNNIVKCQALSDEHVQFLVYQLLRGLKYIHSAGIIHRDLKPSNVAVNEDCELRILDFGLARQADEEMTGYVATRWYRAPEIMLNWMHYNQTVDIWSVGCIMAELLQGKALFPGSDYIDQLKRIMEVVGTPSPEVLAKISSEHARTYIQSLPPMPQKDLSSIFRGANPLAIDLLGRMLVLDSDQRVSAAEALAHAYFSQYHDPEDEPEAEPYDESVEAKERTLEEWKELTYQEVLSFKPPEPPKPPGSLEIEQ

ZAP70 (human) = ZAP70 (human) (UniProt P43403)
MINK1 (human) = MINK1 (human) (UniProt Q8N4C8)
PAK7 (human) = PAK7 (human) (UniProt Q9P286)
Chain of PAK7 (human) (Q9P286 whole entry, looked up): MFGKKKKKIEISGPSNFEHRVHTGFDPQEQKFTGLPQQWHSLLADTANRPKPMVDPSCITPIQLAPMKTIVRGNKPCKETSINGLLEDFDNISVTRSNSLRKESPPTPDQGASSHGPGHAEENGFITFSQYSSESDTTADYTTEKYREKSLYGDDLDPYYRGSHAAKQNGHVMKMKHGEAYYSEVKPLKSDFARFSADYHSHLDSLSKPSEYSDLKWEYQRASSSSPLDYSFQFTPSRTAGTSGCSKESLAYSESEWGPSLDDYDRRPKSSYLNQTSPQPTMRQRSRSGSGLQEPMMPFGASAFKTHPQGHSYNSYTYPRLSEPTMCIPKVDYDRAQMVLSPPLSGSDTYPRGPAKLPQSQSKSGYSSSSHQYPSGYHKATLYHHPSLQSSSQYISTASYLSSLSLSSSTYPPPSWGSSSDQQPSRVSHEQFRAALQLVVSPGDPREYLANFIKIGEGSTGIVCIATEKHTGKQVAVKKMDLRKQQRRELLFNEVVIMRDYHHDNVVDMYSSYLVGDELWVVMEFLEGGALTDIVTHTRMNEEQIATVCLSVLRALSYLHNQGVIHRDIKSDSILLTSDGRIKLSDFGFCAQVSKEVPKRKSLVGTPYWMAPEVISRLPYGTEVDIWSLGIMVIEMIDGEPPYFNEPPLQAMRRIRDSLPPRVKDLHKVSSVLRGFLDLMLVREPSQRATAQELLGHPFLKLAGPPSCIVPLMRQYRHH

STK32C (human) = STK32C (human) (UniProt Q86UX6)
Chain of STK32C (human) (Q86UX6 whole entry, looked up): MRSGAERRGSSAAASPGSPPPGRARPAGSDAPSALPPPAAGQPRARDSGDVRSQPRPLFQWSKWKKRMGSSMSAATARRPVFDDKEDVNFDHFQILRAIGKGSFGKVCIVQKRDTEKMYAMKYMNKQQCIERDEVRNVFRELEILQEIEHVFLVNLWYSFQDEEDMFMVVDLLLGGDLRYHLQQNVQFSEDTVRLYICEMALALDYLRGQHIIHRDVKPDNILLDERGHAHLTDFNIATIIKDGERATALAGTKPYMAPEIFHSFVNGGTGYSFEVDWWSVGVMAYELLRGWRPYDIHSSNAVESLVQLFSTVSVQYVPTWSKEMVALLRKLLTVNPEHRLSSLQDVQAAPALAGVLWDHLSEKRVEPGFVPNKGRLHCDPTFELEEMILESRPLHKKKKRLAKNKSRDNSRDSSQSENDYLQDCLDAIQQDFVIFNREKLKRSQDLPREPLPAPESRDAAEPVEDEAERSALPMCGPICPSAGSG

DCLK3 (human) = DCLK3 (human) (UniProt Q9C098)
PAK3 (human) = PAK3 (human) (UniProt O75914)
PHKG2 (human) = PHKG2 (human) (UniProt P15735)
MYLK2 (human) = MYLK2 (human) (UniProt Q9H1R3)
CHEK1 (human) = CHEK1 (human) (UniProt O14757)
SRMS (human) = SRMS (human) (UniProt Q9H3Y6)
SRPK2 (human) = SRPK2 (human) (UniProt P78362)
Chain of SRPK2 (human) (P78362 whole entry, looked up): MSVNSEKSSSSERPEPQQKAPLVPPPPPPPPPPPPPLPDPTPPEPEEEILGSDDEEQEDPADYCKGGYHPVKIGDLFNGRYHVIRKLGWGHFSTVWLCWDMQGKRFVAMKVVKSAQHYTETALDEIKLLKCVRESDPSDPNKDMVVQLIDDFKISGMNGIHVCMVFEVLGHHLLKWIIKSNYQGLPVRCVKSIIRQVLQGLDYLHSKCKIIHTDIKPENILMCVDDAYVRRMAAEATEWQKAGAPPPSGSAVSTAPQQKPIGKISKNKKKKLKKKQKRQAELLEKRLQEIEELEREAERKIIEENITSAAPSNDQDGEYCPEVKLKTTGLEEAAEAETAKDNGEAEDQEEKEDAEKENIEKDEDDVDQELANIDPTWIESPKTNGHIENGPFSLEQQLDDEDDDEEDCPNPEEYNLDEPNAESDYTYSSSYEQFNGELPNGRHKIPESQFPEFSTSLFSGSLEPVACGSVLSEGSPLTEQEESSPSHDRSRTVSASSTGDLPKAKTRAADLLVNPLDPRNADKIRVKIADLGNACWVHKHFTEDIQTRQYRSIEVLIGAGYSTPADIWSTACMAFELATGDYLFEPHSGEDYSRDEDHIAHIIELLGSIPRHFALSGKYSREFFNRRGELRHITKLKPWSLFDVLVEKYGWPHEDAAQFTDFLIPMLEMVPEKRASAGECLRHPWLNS

EPHA1 (human) = EPHA1 (human) (UniProt P21709)
INSRR (human) = INSRR (human) (UniProt P14616)
MAPK10 (human) = MAPK10 (human) (UniProt P53779)
IGF1R (human) = IGF1R (human) (UniProt P08069)
PRKAA1 (human) = PRKAA1 (human) (UniProt Q13131)
TNIK (human) = TNIK (human) (UniProt Q9UKE5)
LTK (human) = LTK (human) (UniProt P29376)
PIM3 (human) = PIM3 (human) (UniProt Q86V86)
MLTK (human) = MLTK (human) (UniProt Q9NYL2)
MAPK8 (human) = MAPK8 (human) (UniProt P45983)
Chain of MAPK8 (human) (P45983 whole entry, looked up): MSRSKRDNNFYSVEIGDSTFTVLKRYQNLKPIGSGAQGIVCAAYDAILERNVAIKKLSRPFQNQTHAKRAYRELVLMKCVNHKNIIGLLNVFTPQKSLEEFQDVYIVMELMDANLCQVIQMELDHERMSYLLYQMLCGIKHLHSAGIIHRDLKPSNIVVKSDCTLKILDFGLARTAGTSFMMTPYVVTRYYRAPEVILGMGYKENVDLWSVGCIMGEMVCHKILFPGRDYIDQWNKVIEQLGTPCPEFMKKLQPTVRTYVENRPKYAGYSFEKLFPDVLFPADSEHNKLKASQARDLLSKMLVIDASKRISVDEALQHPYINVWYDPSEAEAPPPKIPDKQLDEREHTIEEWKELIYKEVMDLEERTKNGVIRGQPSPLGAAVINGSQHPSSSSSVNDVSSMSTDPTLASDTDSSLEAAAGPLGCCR

ADCK4 (human) = ADCK4 (human) (UniProt Q96D53)
CAMK4 (human) = CAMK4 (human) (UniProt Q16566)
Chain of CAMK4 (human) (Q16566 whole entry, looked up): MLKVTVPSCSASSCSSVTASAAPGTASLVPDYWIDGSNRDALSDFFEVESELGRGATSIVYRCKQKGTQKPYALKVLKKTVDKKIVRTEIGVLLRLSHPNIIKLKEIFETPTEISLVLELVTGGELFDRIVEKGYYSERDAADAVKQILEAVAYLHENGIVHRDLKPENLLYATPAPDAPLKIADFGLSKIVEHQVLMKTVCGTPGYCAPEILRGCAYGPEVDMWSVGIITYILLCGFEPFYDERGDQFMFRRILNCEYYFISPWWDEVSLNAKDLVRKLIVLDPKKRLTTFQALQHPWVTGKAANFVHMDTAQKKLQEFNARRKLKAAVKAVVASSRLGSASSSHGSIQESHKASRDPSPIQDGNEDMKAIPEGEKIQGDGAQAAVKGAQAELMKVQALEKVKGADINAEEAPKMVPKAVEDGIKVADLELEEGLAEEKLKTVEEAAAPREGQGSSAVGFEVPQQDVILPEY

HCK (human) = HCK (human) (UniProt P08631)
FLT4 (human) = FLT4 (human) (UniProt P35916)
CAMK2D (human) = CAMK2D (human) (UniProt Q13557)
TAOK1 (human) = TAOK1 (human) (UniProt Q7L7X3)
Chain of TAOK1 (human) (Q7L7X3 whole entry, looked up): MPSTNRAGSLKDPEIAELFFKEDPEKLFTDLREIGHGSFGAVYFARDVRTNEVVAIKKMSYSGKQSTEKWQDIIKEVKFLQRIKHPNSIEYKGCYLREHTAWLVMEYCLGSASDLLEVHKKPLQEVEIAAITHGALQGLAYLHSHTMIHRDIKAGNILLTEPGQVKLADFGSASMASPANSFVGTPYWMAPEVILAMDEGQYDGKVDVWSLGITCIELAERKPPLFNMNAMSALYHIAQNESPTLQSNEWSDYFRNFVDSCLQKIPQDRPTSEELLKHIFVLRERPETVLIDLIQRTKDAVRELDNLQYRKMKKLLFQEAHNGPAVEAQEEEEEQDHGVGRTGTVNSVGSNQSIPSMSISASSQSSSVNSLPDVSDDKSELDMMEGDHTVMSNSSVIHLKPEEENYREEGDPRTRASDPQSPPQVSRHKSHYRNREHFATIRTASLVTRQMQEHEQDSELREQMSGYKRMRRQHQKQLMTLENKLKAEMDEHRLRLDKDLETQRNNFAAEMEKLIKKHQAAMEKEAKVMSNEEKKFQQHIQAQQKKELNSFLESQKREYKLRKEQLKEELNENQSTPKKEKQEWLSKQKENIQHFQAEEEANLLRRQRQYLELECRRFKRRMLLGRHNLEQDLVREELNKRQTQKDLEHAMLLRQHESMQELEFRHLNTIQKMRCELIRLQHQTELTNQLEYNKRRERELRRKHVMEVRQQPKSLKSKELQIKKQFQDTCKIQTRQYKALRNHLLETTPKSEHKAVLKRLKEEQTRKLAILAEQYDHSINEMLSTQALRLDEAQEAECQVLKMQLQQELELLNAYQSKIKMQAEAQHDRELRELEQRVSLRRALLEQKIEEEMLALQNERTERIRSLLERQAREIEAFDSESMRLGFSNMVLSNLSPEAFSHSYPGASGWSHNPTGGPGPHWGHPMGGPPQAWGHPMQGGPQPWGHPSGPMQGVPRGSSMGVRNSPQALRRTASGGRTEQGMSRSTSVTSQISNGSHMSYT

AURKA (human) = AURKA (human) (UniProt O14965)
Chain of AURKA (human) (O14965 whole entry, looked up): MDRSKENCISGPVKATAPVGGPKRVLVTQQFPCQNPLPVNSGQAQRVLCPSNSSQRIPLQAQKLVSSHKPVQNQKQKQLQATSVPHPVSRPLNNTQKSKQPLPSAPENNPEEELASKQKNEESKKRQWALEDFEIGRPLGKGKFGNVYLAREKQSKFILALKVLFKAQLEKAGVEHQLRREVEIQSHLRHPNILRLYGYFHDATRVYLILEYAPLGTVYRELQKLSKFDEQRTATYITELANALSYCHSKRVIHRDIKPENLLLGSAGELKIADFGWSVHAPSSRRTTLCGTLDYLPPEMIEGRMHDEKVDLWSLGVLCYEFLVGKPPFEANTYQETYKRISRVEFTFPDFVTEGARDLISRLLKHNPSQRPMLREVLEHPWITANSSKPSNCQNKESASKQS

PTK2B (human) = PTK2B (human) (UniProt Q14289)
CSNK1A1L (human) = CSNK1A1L (human) (UniProt Q8N752)
MAP4K4 (human) = MAP4K4 (human) (UniProt O95819)
PTK6 (human) = PTK6 (human) (UniProt Q13882)
STK17B (human) = STK17B (human) (UniProt O94768)
Chain of STK17B (human) (O94768 whole entry, looked up): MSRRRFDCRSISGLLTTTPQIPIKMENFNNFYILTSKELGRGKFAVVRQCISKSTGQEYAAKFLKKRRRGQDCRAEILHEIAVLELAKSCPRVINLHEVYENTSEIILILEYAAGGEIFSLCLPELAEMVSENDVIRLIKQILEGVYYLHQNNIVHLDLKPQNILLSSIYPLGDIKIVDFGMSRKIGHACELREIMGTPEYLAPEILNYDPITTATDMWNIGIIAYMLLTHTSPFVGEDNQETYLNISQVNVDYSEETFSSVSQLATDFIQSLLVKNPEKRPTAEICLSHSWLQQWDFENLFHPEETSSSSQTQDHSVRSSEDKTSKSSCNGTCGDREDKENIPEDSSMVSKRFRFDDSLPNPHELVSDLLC

SMILES | kinase still bound, per cent of control (MST1R (human)) [%] | kinase still bound, per cent of control (CHUK (human)) [%] | kinase still bound, per cent of control (MAPK12 (human)) [%] | kinase still bound, per cent of control (MAPK1 (human)) [%] | kinase still bound, per cent of control (CDC2L2 (human)) [%] | kinase still bound, per cent of control (TNK2 (human)) [%] | kinase still bound, per cent of control (MAPK11 (human)) [%] | kinase still bound, per cent of control (ZAP70 (human)) [%] | kinase still bound, per cent of control (MINK1 (human)) [%] | kinase still bound, per cent of control (PAK7 (human)) [%] | kinase still bound, per cent of control (STK32C (human)) [%] | kinase still bound, per cent of control (DCLK3 (human)) [%] | kinase still bound, per cent of control (PAK3 (human)) [%] | kinase still bound, per cent of control (PHKG2 (human)) [%] | kinase still bound, per cent of control (MYLK2 (human)) [%] | kinase still bound, per cent of control (CHEK1 (human)) [%] | kinase still bound, per cent of control (SRMS (human)) [%] | kinase still bound, per cent of control (SRPK2 (human)) [%] | kinase still bound, per cent of control (EPHA1 (human)) [%] | kinase still bound, per cent of control (INSRR (human)) [%] | other results
C=CC(=O)Nc1cccc(Nc2nc(N[C@H]3CC[C@H](N(C)C)CC3)nc3c2ncn3C(C)C)c1 | 100 | 82 | 96 | 93 | 98 | 46 | 89 | 77 | 27 | 17 | 98 | 86 | 100 | 44 | 90 | 87 | 88 | 92 | 72 | 64 | kinase still bound, per cent of control (MAPK10 (human)): 100%; kinase still bound, per cent of control (IGF1R (human)): 87%; kinase still bound, per cent of control (PRKAA1 (human)): 78%; kinase still bound, per cent of control (TNIK (human)): 35%; kinase still bound, per cent of control (LTK (human)): 88%; kinase still bound, per cent of control (PIM3 (human)): 75%; kinase still bound, per cent of control (MLTK (human)): 100%; kinase still bound, per cent of control (MAPK8 (human)): 100%; kinase still bound, per cent of control (ADCK4 (human)): 94%; kinase still bound, per cent of control (CAMK4 (human)): 100%; kinase still bound, per cent of control (HCK (human)): 27%; kinase still bound, per cent of control (FLT4 (human)): 58%; kinase still bound, per cent of control (CAMK2D (human)): 53%; kinase still bound, per cent of control (TAOK1 (human)): 35%; kinase still bound, per cent of control (AURKA (human)): 100%; kinase still bound, per cent of control (PTK2B (human)): 51%; kinase still bound, per cent of control (CSNK1A1L (human)): 1.5%; kinase still bound, per cent of control (MAP4K4 (human)): 53%; kinase still bound, per cent of control (PTK6 (human)): 100%; kinase still bound, per cent of control (STK17B (human)): 22%
CCOc1cc2ncc(C#N)c(Nc3ccc(OCc4ccccn4)c(Cl)c3)c2cc1NC(=O)/C=C/CN(C)C | 100 | 81 | 100 | 100 | 100 | 40 | 100 | 87 | 6.8 | 72 | 100 | 100 | 100 | 92 | 79 | 65 | 91 | 85 | 100 | 94 | kinase still bound, per cent of control (MAPK10 (human)): 27%; kinase still bound, per cent of control (IGF1R (human)): 100%; kinase still bound, per cent of control (PRKAA1 (human)): 79%; kinase still bound, per cent of control (TNIK (human)): 6%; kinase still bound, per cent of control (LTK (human)): 100%; kinase still bound, per cent of control (PIM3 (human)): 100%; kinase still bound, per cent of control (MLTK (human)): 70%; kinase still bound, per cent of control (MAPK8 (human)): 16%; kinase still bound, per cent of control (ADCK4 (human)): 98%; kinase still bound, per cent of control (CAMK4 (human)): 100%; kinase still bound, per cent of control (HCK (human)): 35%; kinase still bound, per cent of control (FLT4 (human)): 100%; kinase still bound, per cent of control (CAMK2D (human)): 100%; kinase still bound, per cent of control (TAOK1 (human)): 83%; kinase still bound, per cent of control (AURKA (human)): 87%; kinase still bound, per cent of control (PTK2B (human)): 90%; kinase still bound, per cent of control (CSNK1A1L (human)): 98%; kinase still bound, per cent of control (MAP4K4 (human)): 6.2%; kinase still bound, per cent of control (PTK6 (human)): 100%; kinase still bound, per cent of control (STK17B (human)): 46%
